A short description of series [1]: CMH incubation with hydrogen peroxide, cell-free EPR. As to the method: (§1) Measurement of CMH oxidation by EPR spectroscopy. All samples for EPR measurement contained 1 mM CMH. Other reagents, when used, were at the following concentrations: xanthine oxidase (XO), 0.03 U/mL; superoxide dismutase (SOD), 5 μM; hypoxanthine (HX), 0.5 mM; hydrogen peroxide (H2O2), 1 mM. Cell-free measurements were made in phosphate-buffered saline (PBS) containing 1 mM diethylenetriaminepentaacetic acid (DTPA). For measurements on RBCs, each sample was made by mixing 2 μL of 50 mM CMH·HCl stock solution with 98 μL of RBC suspension (˜40% hematocrit) in Citrate Phosphate Dextrose Adenine (CPDA-1, Sigma-Aldrich, St. Louis, MO). Time zero (t=0) is the time at which CMH is mixed into the sample. The amplitude (h) of the center peak of the CM· nitroxide EPR spectrum was converted into concentration (C in μM) by using a calibration equation, which for this example was C=(h−0.03308)/0.06461, determined using a series of standard samples.
(§2) Hydroxylamine molecular probe oxidation by O2^·−. The enzyme xanthine oxidase (XO) oxidizes its substrate hypoxanthine and generates O2^·− in the process. […] The first and last EPR spectrum of a representative data set are plotted as the inset at the top left, showing growth of the EPR spectrum as reaction proceeds. Superoxide dismutase (SOD) destroys O2^·− in a rapid enzymatic process, thus preventing it from reacting with CMH. […]

The nature of series [2]: CMH oxidation by O2^·− from xanthine oxidase/hypoxanthine, cell-free EPR. Particulars: 1 mM CMH. As to the method:
as §1, §2

The subject of series [3] is RBCs. The series can be described thus: Complete blood count RBC parameters following CMH exposure. Particulars: CMH 0.1, 0.3, 1.0, 3.0 and 10 mM, 10 minutes, ambient temperature, vs vehicle ddH2O. Type of series: cell-based, human. As to the method: (§3) Donor blood. Blood was obtained from healthy volunteers under informed consent. All human subject research was approved by the University of Maryland, Baltimore Institutional Review Board under Protocol #-HP-00092436.
(§4) CMH Incubation. Whole blood was centrifuged at 900 g/2500 rpm for 10 minutes to separate RBC from plasma/buffy coat. Plasma and buffy coat were removed, and RBCs were washed five times with 0.5 ml volumes of isotonic phosphate buffered saline containing 5 mM glucose. After each wash, supernatant and residual buffy coat was removed. After the 5th wash the RBC pellet was mixed with the preservative solution, CPDA-1 in an 85:15 ratio (150 μL CPDA-1 for a total volume of 1 mL). This step was performed to approximate the preparation of packed RBCs for refrigerator storage. CMH was diluted with double deionized H2O (ddH2O) to make stock solutions ranging from 400-4 mM. 10 μL of stock CMH solution or ddH2O was added to 390 μL of RBC/CPDA-1 suspensions, mixed gently but thoroughly and incubated at ambient temperature for 10 minutes. The concentrations tested were as follows: 0.1, 0.3, 1.0, 3.0 and 10 mM. This step was performed to approximate the preparation time needed for assaying superoxide in donor RBCs at the point of collection or in a blood bank setting. After 10 minutes of incubation, complete blood count, shear stress deformability, oxygen equilibrium (oxygen saturation and desaturation) was measured as 3 technical replicates for all samples. Fixation of RBCs was performed for scanning electron microscopy.
Total Blood cell count. Total blood cell count was quantified using ABX Pentra 60 C+ Hematology analyzer (HORIBA Instruments Inc., Kyoto, Japan). Briefly, 60 μL of whole blood was used for the analyses.

In another series the test system is RBC. Particulars: cited from earlier work.
Series [4] deals with RBCs from healthy donors and donors with sickle-cell disease. As to the kind of experiment: CMH oxidation in RBCs from healthy donors vs donors with sickle-cell disease, EPR. The conditions noted are these: SCD n=19, Healthy n=6, p=1.26×10^−6. Type of series: cell-based, human. As to the method: as §1
Distinguishing between RBCs from healthy subjects and patients with sickle-cell disease. Hydroxylamine molecular probe, e.g., CMH, measurements can be used to differentiate between RBCs from healthy donors and donors with sickle-cell disease, as shown in FIG. 4. RBCs from screened healthy donors (Healthy, n=6) and donors that have sickle-cell disease (SCD, n=19) were tested with CMH. […] Error bars represent s.e.m.

The test system of series [5] is RBCs. The series can be described thus: Scanning electron microscopy of RBCs exposed to CMH. The conditions noted are these: CMH 0.1, 0.3, 1.0, 3.0 and 10 mM, 10 minutes, ambient temperature, vs vehicle. Type of series: cell-based, human. As to the method: as §3
as §4, with “This step was performed to approximate the preparation time needed for assaying superoxide in donor RBCs at the point of collection or in a blood bank setting.” left out, “Fixation of RBCs was performed for scanning electron microscopy.” left out

The test system of series [6] is RBCs from FVB and B6 mice. The series can be described thus: CMH oxidation in refrigerator-stored murine RBCs (FVB vs B6), EPR. The class given is cell-based, mouse. As to the method: as §1
Murine blood collection and storage. Mouse blood collections were approved by the University of Maryland, Baltimore Institutional Animal Care and Use Committee (IACUC) (protocol #0520008). Processed RBCs from two different mouse strains (C57BL/6J or B6 for short, Jackson Laboratory, Barr Harbor, ME and FVB, Charles Rivers, Worcester, MA) were evaluated in this study. Whole blood (approximately 800-1000 μL per mouse) was collected by cardiac puncture using a 21 G×1 inch needle and 1 mL syringe containing Citrate Phosphate Dextrose solution (CPD) from n=15 B6 and n=15 FVB mice. Blood was pooled within the strains in 15 mL falcon tubes and centrifuged at 750×g for 5 minutes. The plasma and buffy coat were removed. Each aliquot was washed 3 times in 5 mL of phosphate-buffered saline containing 10 mM glucose (PBS-G) with gentle swirling for 3 minutes followed by centrifugation at 750×g for 5 minutes. After the final wash, PBS-G was removed and CPDA-1 (840 μL, 14% of the total volume) was added to RBCs (approximately 6 mL of packed RBCs). Hematocrits were approximately 70% across storage tubes. Finally, preparations were split into 12 equal volumes (500 μL) and stored in 1.7 mL Eppendorf tubes (n=3 per mouse strain per time point) in a refrigerator at 4-6° C. Measurements were made on day 1 (immediately after processing) and then on days 2, 4 and 8 after processing such that measurements were made from independent tubes and not a single pooled blood tube.
Data analysis and presentation. Least-squares curve fitting and statistical analysis were performed using OriginPro software (OriginLab Corp., Northampton, MA). […] Difference between the two strains on the same day was assessed by t-test; within-strain differences over multiple days of storage were assessed through ANOVA.

The subject of series [7] is RBCs. As to the kind of experiment: Shear stress ektacytometry of RBCs exposed to CMH. The conditions noted are these: CMH 0.1, 0.3, 1.0, 3.0 and 10 mM; shear stress 5.33 Pa and 30 Pa; vs vehicle, P>0.05. The class given is cell-based, human. As to the method:
as §3
as §4, with “10 μL of stock CMH solution or ddH2O was added to 390 μL of RBC/CPDA-1 suspensions, mixed gently but thoroughly and incubated at ambient temperature for 10 minutes. The concentrations tested were as follows: 0.1, 0.3, 1.0, 3.0 and 10 mM. This step was performed to approximate the preparation time needed for assaying superoxide in donor RBCs at the point of collection or in a blood bank setting.” left out, “Fixation of RBCs was performed for scanning electron microscopy.” left out
Measurements of RBC deformability. RBC deformability was measured by ektacytometry, using the laser-assisted optical rotational cell analyzer (LORCA MaxSis, Mechatronics, Netherlands) at 37° C. […] RBC deformability was measured by applying 9 different shear stresses ([…]). […]

The subject of series [8] is RBCs. The series can be described thus: Oxygen equilibrium (P50) of RBCs exposed to CMH. Type of series: cell-based, human. Particulars: CMH up to 10 mM (10-fold the intended assay concentration). As to the method: as §3
as §4, with “10 μL of stock CMH solution or ddH2O was added to 390 μL of RBC/CPDA-1 suspensions, mixed gently but thoroughly and incubated at ambient temperature for 10 minutes. The concentrations tested were as follows: 0.1, 0.3, 1.0, 3.0 and 10 mM. This step was performed to approximate the preparation time needed for assaying superoxide in donor RBCs at the point of collection or in a blood bank setting.” left out, “Fixation of RBCs was performed for scanning electron microscopy.” left out
Measurement of Oxygen equilibrium (p50). […] The P50 value was determined using an automated blood oxygen analyzer (Hemox, Model B, TCS Scientific) following the manufacturer's protocol. […]

The next series relates to human RBCs. As to the kind of experiment: CMH oxidation in human RBCs stored under normoxic vs hypoxic conditions, EPR. Type of series: cell-based. The conditions noted are these: entire duration of storage, p<9.31×10^−4. As to the method:
as §1
Distinguishing between normoxic and hypoxic storage conditions. Hydroxylamine molecular probe, e.g., CMH, measurements can be used to distinguish human RBCs stored under normoxic and hypoxic conditions, as shown in FIG. 3B. Duplicate samples of human RBCs were stored 1) under normoxic conditions (equilibrated with air), and 2) under hypoxic conditions (equilibrated with low-oxygen atmosphere) and tested periodically with CMH. […]

For `COC(=O)C1CC(C)(C)N(O)C1(C)C` (stereo not drawn) [CMH, 1-hydroxy-3-methoxycarbonyl-2,2,5,5-tetramethylpyrrolidine], in series [1] (1 mM CMH, 1 mM H2O2, PBS with 1 mM DTPA), the “generation of CM· on incubation with H2O2” value is “negligible generation of CM·”. Besides, the “selectivity of CMH for O2^·− over H2O2” value in [1] (1 mM H2O2) was “high selectivity”. The “reaction of CMH with O2^·− (CM· formation quantified by EPR)” value in series [2] (XO 0.03 U/mL, hypoxanthine 0.5 mM, PBS with 1 mM DTPA) is “converts it to CM·”. Moreover, in [2] (XO + hypoxanthine + SOD 5 μM), the “production of CM· in presence of SOD” value is listed as “negligible production of CM·”. Also, in the series with RBCs [3], the “% hematocrit” value is listed as “no CMH concentration dependent differences”, the Mean corpuscular hemoglobin entry is “no CMH concentration dependent differences”, the Mean corpuscular volume entry is listed as “no CMH concentration dependent differences” and the RBC count result is recorded as “no CMH concentration dependent differences”. For the same molecule, in the series on RBCs [3], the “mean corpuscular hemoglobin concentration” value was “no CMH concentration dependent differences” and the total hemoglobin entry was “no CMH concentration dependent differences”. The membrane permeance result with RBC was “membrane-permeant”. The “rate of CMH oxidation, SCD RBCs vs Healthy RBCs” value in series [4] is given as “much higher rates”. Moreover, in the series with RBCs [5], the “RBC membrane/morphology changes by SEM” value was “no remarkable changes”. In addition, in series [6] (B6 mouse RBCs, day 2 of storage, 1 mM CMH, slightly above buffer control CPDA-1), the “rate of CM· generation in B6 RBCs” value is given as “low rate”. Moreover, the “rate of CM· generation in FVB RBCs” value in series [6] (FVB mouse RBCs vs B6, day 2 of storage, 1 mM CMH) was “much higher rate”. Further, in series [6] (days 1, 2, 4 and 8 of storage), the “mean rate of CMH to CM· oxidation, FVB versus B6 murine RBCs” value was 3 fold. The RBC elongation index entry in the series on RBCs [7] is listed as “do not change the elongation indices”. Moreover, the “oxygen equilibrium curves / P50 (hemoglobin allostery)” value in the series with RBCs [8] is on record as “does not impart aberrant hemoglobin allostery”. For the same molecule, the “rate of CMH oxidation, normoxic vs hypoxic stored RBCs” value in the series with human RBCs is reported as “much higher rate”.
With `COC(=O)C1CC(C)(C)N([O])C1(C)C` (stereo not drawn) [CM·], the membrane permeance entry in the series with RBC is on record as “membrane-permeant”. Moreover, in series [6] (at the time of CMH addition, each day of measurement), the “mean [CM·] higher in RBCs from FVB mice than B6” value was about 9 µM.

The values above are taken from patent US20250298040A1, “MEASUREMENT OF REACTIVE OXYGEN SPECIES TO ASSESS RED BLOOD CELL QUALITY” (UNIVERSITY OF MARYLAND, BALTIMORE, priority 2022, published 2025).
